One series deals with Arabidopsis. The experiment in a line: Flowering-promoting effect in Arabidopsis plant body after direct introduction of florigen. It is filed as in vivo. The method, then: A mixed solution prepared by mixing the florigen mHd3a-1 and the cell-penetrating peptide R9 in ten-times diluted PBS in the same manner as in Example 3 was used for treatment of seedling of Arabidopsis at the time of cotyledon expansion about three days after seeding. It should be noted that the shoot apices in seedling of Arabidopsis was exposed at the time of cotyledon expansion. The treatment was carried out at room temperature for 2 days. After that, the mixed solution was washed, and the plants were cultivated on the MS medium under a short-day condition (day length: 10 hours) for from 30 to 40 days to examine the timing of the flowering. The examination condition of the start of the flowering was defined as the start of bolting or a state where differentiation of flower buds was visually observed, and whether the flowering was early or late was evaluated based on the number of rosette leaves at the time when the state described above was achieved. In the case of Arabidopsis, rosette leaves are usually extracted, and the extraction of the rosette leaves is stopped when the flowering is started. When the flowering is started in the early stage, the number of the leaves is small because only a small number of the rosette leaves can be extracted, while when it takes a long time before the flowering is started, the number of the leaves is large because many rosette leaves can be extracted.
FIG. 12 and FIG. 13 show the results. FIG. 12 are photographs taken on day 14 and day 21, when the cultivation start date under the short-day condition is defined as day 0. The enlarged view is one obtained by enlarging the area enclosed by a dashed line in the photograph of a flower bud of an individual treated with the mixed solution of mHd3a-1 and R9, which was taken on day 21. In addition, the numbers in the graph of FIG. 13 represent numbers of individuals that achieved the flowering at each number of leaves. […]

For series [1], the system named is shoot apical tissues of Arabidopsis. Description: Introduction of florigen into cells of shoot apical tissue of Arabidopsis. It is filed as cell-based. The settings on record: mixed solution with R9 as in Example 3. The method, then:
(§1) The mHd3a-1 prepared by high level expression in Example 2 was labeled with a fluorochrome FITC. Subsequently, a rice shoot apical tissue was exposed under a stereomicroscope, and the cell-penetrating peptide and the florigen were mixed and used for treatment of the plant tissue in the same manner as in Example 1. A mixed solution was prepared by adding the florigen at a final concentration of 50 μM and the cell-penetrating peptide R9 at a final concentration of 500 μM in PBS (pH 7.4). The mixed solution was added dropwise to the exposed shoot apical tissue to bring the mixed solution into contact with the tissue. The tissue was treated for 16 hours at room temperature.
(§2) In the same manner as in Example 3, the mixed solution of the cell-penetrating peptide and the florigen was added dropwise to shoot apical tissues of corn and Arabidopsis to treat the tissues.

Series [2] has as its system flower-bud formation marker gene. Description: Expression of flower-bud formation marker gene after direct introduction of florigen, rice with all florigens inactivated (Hd3a-RFT1 double RNAi). The settings on record: introduced with R9 as in Example 3. It is filed as in vivo. The text has this: (§3) (1) A rice shoot apical tissue into which the florigen was introduced was isolated in the same manner as in Example 3. RNA was extracted from the rice shoot apical tissue by a conventional method, and expression of a flower-bud formation marker gene (OsMADS15 gene) was examined by real-time quantitative RT-PCR (see Non Patent Literature 2 for the method).
(2) Further, rice in which all florigens were inactivated (Hd3a-RFT1 double RNAi) (Komiya et al. (2008) Development 135:767-774) was subjected to the same experiment as in (1).

The test system of series [3] is flower-bud formation marker gene OsMADS15. Description: Florigen function in transient expression system for protoplasts (with OsFD1), RT-PCR. It counts as cell-based. The settings on record: transiently expressed with OsFD1 in protoplasts; compared among five mutated Hd3a's. The text has this: (2) The florigen functions were examined for mutated Hd3a partial peptides of mHd3a-2F (full-length, having C43L, C109S, and C166S amino acid substitutions) and m-Hd3a-3F (full-length, having K31A, Y136A, and W140A amino acid substitutions) in addition to the mutated Hd3a's examined in (1) above, i.e., mHd3a-1, mHd3a-2T, and mHd3a-3T. The as say system used is a transient expression system for protoplasts. When the mutated Hd3a and a transcription factor OsFD1 are transiently expressed in protoplasts in this system, a flower-bud formation marker gene OsMADS15 is transcriptionally activated if the Hd3a is functional. The transient expression system for protoplasts was constructed according to the method described in Non Patent Literature 2. In addition, the expression of the OsMADS15 gene was examined by RT-PCR method according to the method described in Non Patent Literature 2.

In series [4] the test system is shoot apical tissues of corn. Description: Introduction of florigen into cells of shoot apical tissue of corn. It counts as cell-based. The settings on record: mixed solution with R9 as in Example 3. The method, then:
as §1, §2

The subject of series [5] is flower-bud formation marker gene (OsMADS15 gene). The experiment in a line: Expression of flower-bud formation marker gene after direct introduction of florigen, wild-type rice, real-time quantitative RT-PCR. It counts as in vivo. The settings on record: wild-type rice shoot apical tissue; introduced with R9 as in Example 3.
Source text: as §3

In series [6] the test system is APETALA1 (AP1) gene, FRUITFULL (FUL) gene, and SQUAMOSA PROMOTER BINDING-LIKES (SPL3) gene. Description: Induction of expression of flowering-responsive genes in Arabidopsis after direct introduction of florigen, real-time quantitative RT-PCR. The settings on record: shoot apical tissue after 2 weeks cultivation. It counts as in vivo. An excerpt: The florigen was introduced directly into Arabidopsis in the same manner as in Example 6, and then the plants were cultivated for 2 weeks, followed by collection of a shoot apical tissue from each individual. RNA was extracted from the shoot apical tissue collected from each individual, and cDNA was synthesized based on a reverse transcription reaction. After that, the expression levels of APETALA1 (AP1) gene, FRUITFULL (FUL) gene, and SQUAMOSA PROMOTER BINDING-LIKES (SPL3) gene were examined by real-time quantitative RT-PCR (see Yamaguchi et al. Dev. Cell 17:268-278 (2009)).

A further series concerns rice shoot apical tissue. The experiment in a line: Introduction of FITC-labeled florigen into cell of rice shoot apical tissue. It counts as cell-based. The settings on record: florigen 50 μM, R9 500 μM in PBS (pH 7.4). The method, then: as §1
The nature of series [7]: Search for florigen capable of high level expression (soluble fractions). The settings on record: recombinant expression of mutated Hd3a. An excerpt: FIG. 5 is a photograph showing mHd3a-1 separated and detected by SDS-PAGE through a conventional method.
The test system of series [8] is Rice radicles, cultured rice cells (rice protoplasts), tobacco leaves, and Arabidopsis leaves. Description: Quantitative efficiency of introduction of GFP by eight cell-penetrating peptides in four tissues. It counts as cell-based. The settings on record: rank among eight cell-penetrating peptides over four tissues (32 treatment groups). The method, then: Eight kinds of cell-penetrating peptides shown in Table 1 above and GFP were separately mixed in PBS (137 mM NaCl, 2.7 mM KCl, 10 mM Na2HPO4, 1.76 mM KH2PO4) (pH 7.4) so as to achieve a final concentration of 50 μM, and rice radicles were immersed in the mixtures. The eight kinds of cell-penetrating peptides are typical peptides selected from arginine-rich peptides, amphiphilic peptides, and peptides each having an RXLR sequence, and were prepared by chemical synthesis.
The immersion treatment was carried out for 16 hours at room temperature, followed by low-temperature treatment at 4° C. for 4 hours. The samples were washed until fluorescence was not observed in a negative control group treated with GFP alone, and cells were counted under a fluorescence stereomicroscope to calculate ratios of fluorescent cells.
(2) The efficiency of introduction of GFP by the eight kinds of cell-penetrating peptides was examined quantitatively in the same manner as in (1) above. Rice radicles (FIG. 2a), cultured rice cells (rice protoplasts) (FIG. 2b), tobacco leaves (FIG. 2c), and Arabidopsis leaves (FIG. 2d) were used as tissues to be examined. A total of 32 treatment groups were evaluated.

In series [9] the test system is rice root epidermal cells. The experiment in a line: Effect of molar ratio of cell-penetrating peptide to protein on efficiency of introduction of GFP. It counts as cell-based. The method, then:
(3) The effect of the molar ratios of the cell-penetrating peptides to the protein on the efficiency of introduction of the protein was examined. The molar ratios of the cell-penetrating peptides (Avr1b and R9) to the protein were changed to 0.01, 0.1, 1, and 10, and the efficiency of introduction of GFP into rice root epidermal cells was evaluated.

As to “mHR: mutated Hd3a incapable of being bound to a receptor (Hd3a R64D F103A R132D), used mixed with R9”, the “effect of promoting the start of the flowering” value with Arabidopsis (used instead of mHd3a-1 in mixed solution with R9, short-day condition) was “not observed”.

For “mHd3a-1: mutated rice Hd3a, full-length, having K31A and E57A amino acid substitutions”, in series [1], the “introduction into the shoot apical tissue of Arabidopsis” value was “introduced efficiently” and the “localization in the cell of the shoot apical tissue of Arabidopsis” value is on record as “localized accurately in the nucleus”. Also, the “plants able to start the flowering when the number of the leaves was 14 or less” value in the series with Arabidopsis (Arabidopsis seedlings treated 2 days with mixed solution with R9 in ten-times diluted PBS, short-day condition 30 to 40 days) is “about 30%”. The “expression of the flower-bud formation marker gene” value in series [2] is “could activate the expression”. Moreover, the “activation of transcription of the OsMADS15 gene” value in series [3] was “most desirably activated”. In series [4], the “introduction into the shoot apical tissue of corn” value is “introduced efficiently” and the “localization in the cell of the shoot apical tissue of corn” value is reported as “localized accurately in the nucleus”. Also, the “expression of the flower-bud formation marker gene (OsMADS15 gene)” value in series [5] was “can activate expression”. Besides, the “individuals treated in which induction of the expression was observed” value in series [6] is reported as “about 30%”. For the same substance, the “expression of AP1, FUL and SPL3 genes” value in series [6] (eIF4a internal standard) was “activated the expression of the three genes”. For the same substance, the “localization in the cell of the rice shoot apical tissue” value in the series with rice shoot apical tissue (16 hours) was “localized accurately in the nucleus”. The “introduction into the rice shoot apical tissue” value in the series with rice shoot apical tissue (16 hours at room temperature) is listed as “introduced efficiently”. The “high level expression and soluble fractions” value in series [7] was “capable of high level expression and providing soluble fractions”.

In the case of “Tat: cell-penetrating peptide YGRKKRRQRRR (SEQ ID NO: 2), arginine-rich, derived from Tat protein of HIV virus (Membrane-permeable peptide Tat)”, in [8], the “comprehensive efficiency of introduction of GFP” value is listed as “second highest”.

On to “mHd3a-2T: partial peptide of Hd3a, amino acids at positions from 6 to 170, having C43L, C109S, and C166S substitutions”, for which the “high level expression and soluble fractions” value in series [7] was “capable of high level expression and providing soluble fractions”.

As for “R9: cell-penetrating peptide RRRRRRRRR (SEQ ID NO: 7), arginine-rich, artificially designed sequence (Membrane-permeable peptide R9)”, the “change of introduction efficiency as molar ratio increased in the order of 0.01, 0.1, 1, and 10” value in series [9] (mixed solution of cell-penetrating peptide and GFP) is recorded as “the introduction efficiency increased”. Moreover, the “increase of efficiency of introduction of GFP, molar ratio 10 versus molar ratio 1” value in [9] (molar ratio of cell-penetrating peptide to protein 10 compared to 1) is recorded as 2.5 times. In addition, the “start of the flowering when the number of the leaves was 14 or less (almost all the plants)” value in the series on Arabidopsis (R9 alone, short-day condition) is given as “did not start the flowering”. Besides, the “comprehensive efficiency of introduction of GFP” value in series [8] is listed as “second highest”.

For the substance “mHd3a-3T: partial peptide of Hd3a, amino acids at positions from 8 to 170, having K31A, Y136A, and W140A substitutions”, the “high level expression and soluble fractions” value in [7] was “capable of high level expression and providing soluble fractions”.

The values above are taken from patent publication US20150011393A1, “METHOD FOR INTRODUCING FLORIGEN” (priority 2012, published 2015).
